Source: patent publication US10406227B2, “Photoactivated molecules for light-induced modulation of the activity of electrically excitable cells and methods of using same” (University of Southern California, priority 2012, dated 2019)
“Also recorded” adds a separate entry of the source.

How the values were obtained:
[1] = test system: INS cells; assay: Whole cell patch clamp, current-clamp membrane potential under blue light; type: cell-based, rat; details: for light-induced increase in membrane potential (depolarization): 10 μM ~2 min preincubation, 488 nm
Procedure: Membrane potential was monitored using whole cell patch clamp in current-clamp mode. Cultured cells (INS and HEK293) were plated on a glass-bottomed culture dishes 1-3 days prior to recording. Cells were incubated in standard extracellular solution with or without 10 μM RubpyC17 compound for approximately 1.5-2 minutes, then washed and incubated with standard extracellular solution without additional supplementation, or with 2-5 mM ascorbate, 100 μM sodium ferrocyanide, or 100-200 μM potassium ferricyanide, as indicated. The chamber was transferred to the microscope stage. Extracellular solution consisted of 140 mM NaCl, 2.8 mM KCl, 10 mM HEPES, 1 mM MgCl2, 2 mM CaCl2, 10 mM glucose, pH adjusted to 7.3, and osmolarity adjusted to 300-310. Conventional whole-cell patch clamp recordings were performed with an EPC-9 amplifier and Pulse software (HEKA Electronics). Pipette electrodes of 1.8-3.5 Mohm were fire polished before use. Intracellular solution consisted of: 145 mM KCl, 10 mM NaCl, 1 mM MgCl2, 1 mM EGTA, 2 mM ATP, 0.3 mM GTP and 10 mM HEPES, pH adjusted to 7.3 and osmolarity adjusted to 290-300 mOsm. To monitor changes in membrane voltage/potential, cells were patch clamped in current-clamp mode. Access resistances were in the range of 3-8 Mohm. Using Pulse, membrane potentials were recorded before, during and after illumination by the argon ion laser at 488 nm with an irradiance value of 0.458 mE s^−1 m^−2 or by a xenon lamp source through a 470/40 nm bandpass excitation filter with an irradiance value of 0.480 mE s^−1 m^−2. […]
Initial attempts were tied to INS and HEK cells, both cells that are not excitable under normal conditions (INS cells were maintained in low glucose <3 mM to prevent action potentials). […] To monitor the plasma membrane potential, the cells were patch-clamped in whole-cell configuration in current-clamp mode and membrane voltages were recorded while illuminating the cell at 488 nm (0.46-0.48 mE s^−1 m^−2), though other wavelengths are useful, depending on the embodiment.

[2] = test system: HEK293T cells; assay: Voltage-clamp membrane current during illumination; type: cell-based, human; details: voltage-clamp at approximately −80 mV
Procedure: To examine whether light-activated RubpyC17 can directly interact and open or block endogenous ion channels, HEK293T cells were preincubated with RubpyC17, and patch-clamped in a voltage-clamp configuration. Voltage-clamp configuration allowed the cells to be clamped at a potential where most voltage-gated ion channels are closed (approximately −80 mV). […] The current-voltage relationship (FIGS. 5C, D) as well as the steady-state voltage-dependent activation curves of RubpyC17-treated chromaffin cells in voltage-clamp mode before and during light illumination (FIG. 5E).

[3] = test system: leech ganglion neurons; assay: Ex vivo leech ganglion neuron recording; type: cell-based, Hirudo verbana; details: ex vivo ganglia
Procedure: Adult leeches Hirudo verbana will be obtained from Niagara Medical Leeches, Inc. (Westbury, N.Y., USA). Groups (20-30) of animals will be kept in glass aquaria with artificial pond water (36 mg/L Instant Ocean salts; Aquarium Systems, Mentor Ohio), in a temperature-controlled room at 16° C. and a 12:12 h light:dark cycle. At the time of experiments, leeches will weigh 1-3 g. Before dissection, the leech will be anesthetized in ice-cold leech saline. Leech saline has the following composition (in mM per liter): NaCl-115, KCl-4, CaCl2-1.8, MgCl2-2, HEPES-10, D-Glucose-5 (Sigma-Aldrich, USA). Individual ganglia will be dissected from the mid-body segments M6-M12, and pinned down in Sylgard-filled dissection box. Medial dorsal longitudinal incision will be made and the blood will be flushed away. Connective tissue and the blood vessel overlaying the ganglion chain will be incised. Dissected ganglia will be transferred to a Petri dish, pinned down in paraffin with six stainless steel pins (dorsal side up). PVNs will be microinjected into the extracellular space of the ganglion with a glass micropipette. Intracellular recording will be performed by penetrating the Retzius neurons with sharp glass electrodes (20-30 MOhm) filled with 3M potassium acetate. […] Neuronal firing will be recorded before and after the injections.

[4] = test system: whole-mount retinas from RCS rats; assay: Whole-mount retina multi-electrode array recording; type: cell-based, rat
Source text: FIGS. 14A-14B depicts data from whole-mount retinas from RCS rats. […] Each bin represents the frequency of spikes for 1 second. Before Rubpy treatment (14A), illumination at 480 nm elicited minimal change in spike frequency. […] Downward arrows mark the time of 100 ms (1st) and 1 second (2nd to fourth) light stimuli.
The retina will be freshly dissected from Royal College of Surgeons (RCS) rats (9 months' or older to ensure total loss of photoreceptors). The whole-mount retina will then be placed onto a multi-electrode array with the ganglion cell layer side facing the electrodes and is held down on the array using a lightly weighted porous membrane. Extracellular field potentials are recorded from 15 or 75 μm diameter electrodes using an MEA1060-Up amplifier and MC Rack software (Multi-Channel Systems). The activity of the retinal in response to illumination is monitored before and after PVN incubation. The retina is continuously perfused with oxygenated (95% O2, 5% CO2), heated (32C) Ames' Medium for baseline activity. The retina is then perfused with Ames' Medium containing PVN for 30 min to 1 hr, followed by 10 min wash with regular Ames' Medium before recording in Ames' Medium with 5-10 mM ascorbate. The retina will be illuminated by white LED light through a bandpass excitation filter (460-500 nm) with durations of 100 μs, 1 ms, 10 ms, 100 ms, 1 s and 30 s. […]

## [Ru(bpy)2(bpy-C17)](PF6)2 [RubpyC17]
[1]; 2 mM ascorbate
  light-induced increase in membrane potential (depolarization): 15.9 ± 4.6 mV
[1]; absence of ascorbate
  light-induced increase in membrane potential (depolarization): 9.8 ± 4.5 mV
[1]; NMDG for sodium, cesium for potassium, ascorbate present
  light-triggered depolarization with non-permeating ions: still persisted
[2]
  light-induced changes in membrane current: did not exhibit light-induced changes in membrane current
[3]
  light-induced action potential firing: respond to illumination by firing action potentials; also recorded: light-induced increases in action potential firing
[4]; 100 micromolar for 30 minutes, 480 nm
  spike frequency on illumination: spike frequency increased
[4]; photoreceptor-degenerate retina
  light-induced action potential firing: respond to illumination by firing action potentials
